The test system of data set [1] is advanced NSCLC. Put plainly: Open-label Phase II predictive marker study of Tarceva monotherapy, response by RECIST. It counts as in vivo, human. Conditions: 102 analysed patients, oral 150 mg/day. The method, then: Clinical benefit was defined as either having an objective response, or disease stabilization for ≧12 weeks.
Based on the experience from the BR.21 study, benefiting population was defined as either having objective response, or disease stabilization for 12 weeks. Clinical and microarray datasets were analyzed according to a pre-defined statistical plan.
Overview of Study Design and Dosing Regimen This was an open-label, predictive marker identification Phase II study. The study was conducted in approximately 26 sites in about 12 countries. 264 patients with advanced NSCLC following failure of at least one prior chemotherapy regimen were enrolled over a 12 month period. […] Dose reductions were permitted based on tolerability to drug therapy. Clinical and laboratory parameters were assessed to evaluate disease control and toxicity. Treatment continued until disease progression, unacceptable toxicity or death. The study design is depicted in FIG. 1.
The RECIST (Uni-dimensional Tumour Measurement) criteria were used to evaluate response. These criteria can be found under the following link: http://www.eortc.be/recist/
Note that: To be assigned a status of CR or PR, changes in tumour measurements must be confirmed by repeated assessments at least 4 weeks apart at any time during the treatment period.
In the case of SD, follow-up measurements must have met the SD criteria at least once after study entry at a minimum interval of 6 weeks.
In the case of maintained SD, follow-up measurements must have met the SD criteria at least once after study entry with maintenance duration of at least 12 weeks.
Based on these parameters, data from 20 arrays were excluded from analysis. Thus data from a total of 102 arrays representing 102 patients was included in the analysis.

For data set [2] the following is noted: patients with cancer, 150 mg/day dose; 500 ng/ml is the average plasma concentration targeted for clinical efficacy; cited from earlier work.
Data set [3] relates to NSCLC. Conditions: NSCLC patients for whom standard therapy for advanced disease has failed; single agent versus placebo; 150 mg/day; cited from earlier work.
Data set [4] concerns epithelial tumours. Conditions: cited from earlier work.
Data set [5] has as its system NSCLC. Particulars: cited from earlier work.
The test system of data set [6] is NSCLC. Particulars: second line therapy of NSCLC; cited from earlier work.
[7] abbreviates: advanced NSCLC after failure of at least one chemotherapy, RECIST.
Setting [8] is: clinical benefit = objective response or disease stabilization for ≧12 weeks.

Entries after “also recorded” stand apart in the source; their conditions may differ.

Regarding `C#Cc1cccc(Nc2ncnc3cc(OCCOC)c(OCCOC)cc23)c1` [Tarceva, erlotinib], in data set [1] (setting [7]), the “Best Response PD” value is listed as 49 (48.0%) n (%), the “Best Response PR” value is on record as 6 (5.9%) n (%) and the “Best Response SD” value was 31 (30.4%) n (%). For the same compound, in data set [1] (setting [8]), the “Clinical Benefit NO” value is recorded as 81 (79.4%) n (%) and the “Clinical Benefit YES” value is on record as 21 (20.6%) n (%). The “Drug levels in plasma” value in data set [2] was > 500 ng/mL. Besides, the Survival entry in data set [3] was “significantly prolongs and improves the survival; also recorded: survival benefit”. Further, in data set [4] (early clinical data, doses that provide the targeted effective concentration), the Safety and tolerability result is “safe and generally well tolerated”. Moreover, in data set [4] (previously treated patients with head and neck cancer and NSCLC), the “Clinical activity (remissions)” value is reported as “capable of inducing durable partial remissions”.
With `CC(=O)O[C@@]12CO[C@@H]1C[C@H](O)[C@@]1(C)C(=O)[C@H](O)C3=C(C)[C@@H](OC(=O)[C@H](O)[C@@H](NC(=O)OC(C)(C)C)c4ccccc4)C[C@@](O)([C@@H](OC(=O)c4ccccc4)[C@H]21)C3(C)C` [docetaxel], the “Survival, second line” value in data set [5] (NSCLC after failure of cisplatin-based first-line regimens, all ages, ECOG performance status 0, 1 or 2, versus best supportive care) was “improved survival”. Further, in data set [5] (patients receiving docetaxel as third-line treatment or beyond), the “Survival, third-line treatment or beyond” value is recorded as “no prolongation of survival”.
As for `Nc1nc2[nH]cc(CCc3ccc(C(=O)N[C@@H](CCC(=O)O)C(=O)O)cc3)c2c(=O)[nH]1` [pemetrexed], in data set [6], the “Efficacy compared with docetaxel” value was “clinically equivalent efficacy” and the “Side effects compared with docetaxel” value is given as “significantly fewer side effects”.

Source of the values: patent US20110184004A1, “PREDICTIVE MARKER FOR EGFR INHIBITOR TREATMENT” (priority 2007, published 2011).
